Our source for the IC50 values is US20190175526A1, “METHODS FOR TREATING CANCER” (Macau University of Science and Technology, priority 2017, published 2019).

The target of one assay is PRMT5 (Homo sapiens, UniProt O14744). Description: PRMT5 enzymatic assay (AlphaLISA). The assay is classed as biochemical. As to conditions: 60 minutes at room temperature, read-out: IC50, PRMT5 enzyme activity. The method, then: PRMT5 enzymatic assay was carried out by Shanghai ChemPartner Co. (998 Halei Road, Pudong New Area, Shanghai, 201203, China). To measure IC50 values, 10 concentrations of compound 3039-0164 were tested. PRMT5 was purchased from BPS bioscience (Cat. No. 51045), and SAM/SAH were purchased from Sigma. Inc (Cat. No. A7007-100MG and No. A9384-25MG). Compound 3039-0164 was prepared as 10 mM stock in DMSO and diluted to final concentration in DMSO. PRMT5 and substrates were incubated with indicated concentrations of compounds in a 384-well plate for 60 minutes at room temperature. Then, acceptor and donor solutions were added to label the residual substrates of PRMT5. The labeling process lasted for 60 minutes at room temperature, followed by reading endpoint with EnSpire Plate Reader with Alpha mode (PerkinElmer). To investigate the influence of compound 3039-0164 on enzymatic activity and its “on-target” effect, AlphaLISA assay was carried out.

Another assay has as its system H460 cells. Briefly: MTT cell viability assay, H460 cells. It counts as cell-based. As to conditions: Homo sapiens, NCI-H460, cell line H460, 72 hours. The method, then: (§1) Cell lines A549 and H460 were purchased from ATCC and cultivated in RPMI 1640 medium supplemented with 10% FBS (Gibco, Big Cabin, Okla., Me., USA), 1% penicillin-streptomycin solution and maintained at 37° C. in a CO2 incubator with 5% CO2. Compound 3039-0164 was dissolved in DMSO and stored at −40° C. Cells were seeded on a 96-well microplate with 3,000 cells/well, cultured overnight for cell adhesion, and treated with DMSO or various concentrations of compound 3039-0164 for 72 hours. Then, each well was added with 10 μL MTT (5 mg/mL) and incubated for 4 hours at […], followed by adding 100 μL acidic isopropanol (10% SDS and 0.01 mol/L HCl). Finally, an absorbance at 570 nm was measured by a microplate reader (Tecan, Morrisville, N.C., USA). Cell viability was calculated relative to untreated controls, with results based on at least three independent experiments. Two human non-small cell lung cancer (NSCLC) cell lines, A549 and H460, were treated with an increasing concentration (0, 2.5, 5.0, 7.5 and 10.0 μM) of compound 3039-0164 for 72 hours, and then cell viability was determined by MTT assay. As shown in FIG. 2a and FIG. 2b, the cell viability of A549 and H460 were both decreased by compound 3039-0164 in a dose-dependent manner.

The next assay deals with A549 cells. Briefly: MTT cell viability assay, A549 cells. The assay is classed as cell-based. As to conditions: Homo sapiens, cell line A459 (A549), 72 hours. The method, then: as §1

Sequence of PRMT5 (O14744 2-637 limits assumed): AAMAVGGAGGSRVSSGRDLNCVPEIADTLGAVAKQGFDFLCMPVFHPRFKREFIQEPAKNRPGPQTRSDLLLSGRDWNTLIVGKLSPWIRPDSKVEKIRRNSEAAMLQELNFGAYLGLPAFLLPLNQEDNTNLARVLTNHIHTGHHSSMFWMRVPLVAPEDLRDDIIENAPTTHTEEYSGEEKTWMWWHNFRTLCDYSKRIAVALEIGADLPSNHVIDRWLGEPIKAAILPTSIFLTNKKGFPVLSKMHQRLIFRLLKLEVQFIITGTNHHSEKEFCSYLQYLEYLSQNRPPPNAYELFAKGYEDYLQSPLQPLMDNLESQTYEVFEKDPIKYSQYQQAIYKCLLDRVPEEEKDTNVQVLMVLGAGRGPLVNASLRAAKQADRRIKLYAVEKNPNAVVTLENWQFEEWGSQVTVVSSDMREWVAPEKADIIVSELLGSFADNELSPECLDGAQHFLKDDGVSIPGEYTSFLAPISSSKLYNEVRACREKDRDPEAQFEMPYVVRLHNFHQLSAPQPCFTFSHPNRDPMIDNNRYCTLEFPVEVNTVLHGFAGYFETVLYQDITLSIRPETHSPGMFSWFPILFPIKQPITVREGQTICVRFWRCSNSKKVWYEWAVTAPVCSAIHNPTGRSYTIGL
Sequence of PRMT5 (Q9BQA1 2-342 partner limits assumed): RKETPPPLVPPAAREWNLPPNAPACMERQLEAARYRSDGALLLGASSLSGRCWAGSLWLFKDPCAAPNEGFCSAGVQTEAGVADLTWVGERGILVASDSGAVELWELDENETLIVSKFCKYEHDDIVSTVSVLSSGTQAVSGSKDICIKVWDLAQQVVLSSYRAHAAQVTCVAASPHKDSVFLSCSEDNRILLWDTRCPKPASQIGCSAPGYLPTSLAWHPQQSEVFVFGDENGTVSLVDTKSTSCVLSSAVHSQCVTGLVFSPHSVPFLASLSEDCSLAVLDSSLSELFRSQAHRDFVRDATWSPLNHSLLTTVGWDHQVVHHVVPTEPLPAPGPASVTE

`O=C1c2ccccc2C(=O)c2c(NCCCN(CCO)CCO)cccc21` [compound 3039-0164]: the IC50 at PRMT5 was found to be 63.2 ± 4.5 µM; in the assay on H460 cells, 8.64 ± 1.46 µM; with A549 cells, 7.79 ± 1.8 µM.
